Here are results for 13 compounds from patent US20220315578A1, “BRD9 BIFUNCTIONAL DEGRADERS AND THEIR METHODS OF USE” (NOVARTIS AG, priority 2019, published 2022).

The assay addresses T1, BRD9-GFP (Homo sapiens, UniProt Q9H8M2).
T1 construct: CHYSEL (2A cis-acting hydrolase element) remnant after GFP; mCherry is split off as a separate protein (C); expressed in transfected cells; host or cells: HEK293A cells (Invitrogen R70507), lentiviral transduction with pLenti6-BRD9-GFP-CHYSEL-mCherry, blasticidin selection
T1 sequence (Q9H8M2 1-597): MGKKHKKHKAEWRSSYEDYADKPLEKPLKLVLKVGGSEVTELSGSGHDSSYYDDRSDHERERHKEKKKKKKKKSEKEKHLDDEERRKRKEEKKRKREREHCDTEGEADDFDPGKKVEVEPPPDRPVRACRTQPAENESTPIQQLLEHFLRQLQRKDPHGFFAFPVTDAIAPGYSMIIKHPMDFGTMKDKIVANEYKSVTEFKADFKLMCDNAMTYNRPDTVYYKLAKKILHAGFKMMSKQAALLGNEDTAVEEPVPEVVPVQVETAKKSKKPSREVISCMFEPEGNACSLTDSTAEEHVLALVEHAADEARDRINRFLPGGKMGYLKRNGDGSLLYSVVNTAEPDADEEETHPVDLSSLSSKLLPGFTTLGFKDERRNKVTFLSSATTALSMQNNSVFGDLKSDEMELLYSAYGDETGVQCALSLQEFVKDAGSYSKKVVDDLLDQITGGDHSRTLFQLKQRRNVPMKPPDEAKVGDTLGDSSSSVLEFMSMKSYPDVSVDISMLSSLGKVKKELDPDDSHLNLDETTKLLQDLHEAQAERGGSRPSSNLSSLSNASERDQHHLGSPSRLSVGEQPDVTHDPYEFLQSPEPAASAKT
Briefly: BRD9-GFP protein abundance flow cytometry assay in HEK293A cells. Type of assay: cell-based. The note with it: HEK293A-BRD9-GFP-CHYSEL-mCherry cells; for BRD9 Deg Amax %: 24 h, % protein remaining at the concentration at which maximum degradation is seen; for DC50: 24 h at 37° C., 10-point 1:3 dilution, concentration at which 50% maximal degradation was observed. In a few lines: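 HEK293A cells stably express bicistronic BRD9-GFP-CHYSEL-mCherry and received 24 h treatment at 37° C with a 10-point, 3-fold dilution series from […], in 0.1% DMSO and duplicate. Median GFP/mCherry ratio of 5,000 single cells by flow cytometry, normalized to mCherry-only cells (0%) and DMSO (100%), gave DC50 and Amax (% protein remaining).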
In general terms: A flow cytometer gives signals particle by particle.

With `CCCCn1cc(-c2ccc(O[C@H]3CCN(CC4CCN(C(=O)COc5ccc(C)c(N6CCC(=O)NC6=O)c5)CC4)C[C@@H]3F)c(OC)c2)c2ccncc2c1=O` [Compound E25, 1-(5-(2-(4-(((3S,4S)-4-(4-(2-Butyl-1-oxo-1,2-dihydro-2,7-naphthyridin-4-yl)-2-methoxyphenoxy)-3-fluoropiperidin-1-yl)methyl)piperidin-1-yl)-2-oxoethoxy)-2-methylphenyl)dihydropyrimidine-2,4(1H,3H)-dione], the “BRD9 Deg Amax %” value was 13.02% and the DC50 was determined as 1 nM.
For `Cn1cc(-c2cc(F)c(CCN3CCC(OC4CCN(CCn5cccc(CN6CCC(=O)NC6=O)c5=O)CC4)CC3)c(F)c2)c2ccncc2c1=O` [Compound E27, 1-((1-(2-(4-((1-(2,6-difluoro-4-(2-methyl-1-oxo-1,2-dihydro-2,7-naphthyridin-4-yl)phenethyl)piperidin-4-yl)oxy)piperidin-1-yl)ethyl)-2-oxo-1,2-dihydropyridin-3-yl)methyl)dihydropyrimidine-2,4(1H,3H)-dione], in that order: 22.28% and 33 nM.
For `CCCCn1cc(-c2ccc(O[C@H]3CCN(CC4CCN(CCn5cccc(CN6CCC(=O)NC6=O)c5=O)CC4)C[C@@H]3F)cc2)c2ccncc2c1=O` [Compound E28, 1-((1-(2-(4-(((3S,4S)-4-(4-(2-butyl-1-oxo-1,2-dihydro-2,7-naphthyridin-4-yl)phenoxy)-3-fluoropiperidin-1-yl)methyl)piperidin-1-yl)ethyl)-2-oxo-1,2-dihydropyridin-3-yl)methyl)dihydropyrimidine-2,4(1H,3H)-dione] the same measures were 23.20% and 21 nM.
In the case of `CCCCn1cc(-c2ccc(O[C@@H]3CCN(CC4CCN(C(=O)c5ccc(OC)c(N6CCC(=O)NC6=O)c5)CC4)C[C@H]3F)c(F)c2)c2ccncc2c1=O` [Compound E29, 1-(5-(4-(((3R,4R)-4-(4-(2-butyl-1-oxo-1,2-dihydro-2,7-naphthyridin-4-yl)-2-fluorophenoxy)-3-fluoropiperidin-1-yl)methyl)piperidine-1-carbonyl)-2-methoxyphenyl)dihydropyrimidine-2,4(1H,3H)-dione], the “BRD9 Deg Amax %” value worked out at 19.48% and it took 1 nM to reach half-maximal degradation (DC50).
For `Cn1cc(-c2cc(F)c(CN3CC[C@@H](OC4CCN(CCn5cccc(CN6CCC(=O)NC6=O)c5=O)CC4)[C@H](F)C3)c(F)c2)c2ccncc2c1=O` [Compound E30, 1-((1-(2-(4-(((3R,4R)-1-(2,6-difluoro-4-(2-methyl-1-oxo-1,2-dihydro-2,7-naphthyridin-4-yl)benzyl)-3-fluoropiperidin-4-yl)oxy)piperidin-1-yl)ethyl)-2-oxo-1,2-dihydropyridin-3-yl)methyl)dihydro-pyrimidine-2,4(1H,3H)-dione], in that order: 11.19% and 3 nM.
For `CCCCn1cc(-c2ccc(O[C@H]3CCN(CC4CCN(C(=O)c5ccc(OC)c(N6CCC(=O)NC6=O)c5)CC4)C[C@@H]3F)cc2)c2ccncc2c1=O` [Compound E31, 1-(5-(4-(((3S,4S)-4-(4-(2-butyl-1-oxo-1,2-dihydro-2,7-naphthyridin-4-yl)phenoxy)-3-fluoropiperidin-1-yl)methyl)piperidine-1-carbonyl)-2-meth-oxyphenyl)dihydro-pyrimidine-2,4(1H,3H)-dione], in that order: 16.43% and 1 nM.
For `CCCCn1cc(-c2ccc(O[C@H]3CCN(CC4CCN(C(=O)c5ccc(OC)c(N6CCC(=O)NC6=O)c5)CC4)C[C@@H]3F)c(OC)c2)c2ccncc2c1=O` [Compound E32, 1-(5-(4-(((3S,4S)-4-(4-(2-Butyl-1-oxo-1,2-dihydro-2,7-naphthyridin-4-yl)-2-methoxyphenoxy)-3-fluoropiperidin-1-yl)methyl)piperidine-1-carbonyl)-2-methoxyphenyl)dihydropyrimidine-2,4(1H,3H)-dione], in that order: 17.58% and 1 nM.
As to `CCCCn1cc(-c2cc(F)c(CN3CCC(OC4CCN(C(=O)c5ccc(OC)c(N6CCC(=O)NC6=O)c5)CC4)CC3)c(F)c2)c2ccncc2c1=O` [Compound E33, 1-(5-(4-((1-(4-(2-butyl-1-oxo-1,2-dihydro-2,7-naphthyridin-4-yl)-2,6-difluorobenzyl)piperi-din-4-yl)oxy)piperi-dine-1-carbonyl)-2-methoxyphenyl)di-hydro-pyrimidine-2,4(1H,3H)-dione], the “BRD9 Deg Amax %” value worked out at 14.29% and half-maximal degradation (DC50) was put at 5 nM.
On to `CCCCn1cc(-c2ccc(OC3CCN(CC4CCN(C(=O)c5ccc(OC)c(N6CCC(=O)NC6=O)c5)CC4)CC3)c(F)c2)c2ccncc2c1=O` [Compound E34, 1-(5-(4-((4-(4-(2-butyl-1-oxo-1,2-dihydro-2,7-naphthyridin-4-yl)-2-fluorophenoxy)piperidin-1-yl)methyl)piperidine-1-carbonyl)-2-methoxyphenyl)dihydropyrimidine-2,4(1H,3H)-dione], for which the “BRD9 Deg Amax %” value is 13.08% and half-maximal degradation (DC50) was put at 2 nM.
For `CCCCn1cc(-c2ccc(O[C@H]3CC[C@@H](OC4CCN(CCn5cccc(CN6CCC(=O)NC6=O)c5=O)CC4)CC3)cc2)c2ccncc2c1=O` [Compound E35, 1-((1-(2-(4-(((cis)-4-(4-(2-butyl-1-oxo-1,2-dihydro-2,7-naphthyridin-4-yl)phenoxy)cyclohexyl)oxy)piperidin-1-yl)ethyl)-2-oxo-1,2-dihydropyridin-3-yl)methyl)dihydropyrimidine-2,4(1H,3H)-dione] the same measures were 15.90% and 6 nM.
For `CCCCn1cc(-c2cc(OC)c(CN3CC[C@@H](OC4CCN(C(=O)c5ccc(OC)c(N6CCC(=O)NC6=O)c5)CC4)[C@H](F)C3)cc2OC)c2ccncc2c1=O` [Compound E36, 1-(5-(4-(((3R,4R)-1-(4-(2-butyl-1-oxo-1,2-dihydro-2,7-naphthyridin-4-yl)-2,5-dimethoxybenzyl)-3-fluoropiperidin-4-yl)oxy)piperidine-1-carbonyl)-2-methoxyphenyl)dihydropyrimidine-2,4(1H,3H)-dione] the same measures were 12.80% and 6 nM.
For `Cn1cc(-c2ccc(CN3CCC(OC4CCN(CCn5cccc(CN6CCC(=O)NC6=O)c5=O)CC4)CC3)cc2)c2ccncc2c1=O` [Compound E37, 1-((1-(2-(4-((1-(4-(2-methyl-1-oxo-1,2-dihydro-2,7-naphthyridin-4-yl)benzyl)piperidin-4-yl)oxy)piperidin-1-yl)ethyl)-2-oxo-1,2-dihydropyridin-3-yl)methyl)dihydropyrimidine-2,4(1H,3H)-dione] the same measures were 13.77% and 9 nM.
As to `COc1cc(-c2cn(C)c(=O)c3cnccc23)c(OC)cc1CN1CC[C@@H](OC2CCN(CCn3cccc(CN4CCC(=O)NC4=O)c3=O)CC2)[C@H](F)C1` [Compound E39, 1-((1-(2-(4-(((3R,4R)-1-(2,5-Dimethoxy-4-(2-methyl-1-oxo-1,2-dihydro-2,7-naphthyridin-4-yl)benzyl)-3-fluoropiperidin-4-yl)oxy)piperidin-1-yl)ethyl)-2-oxo-1,2-dihydropyridin-3-yl)methyl)dihydropyrimidine-2,4(1H,3H)-dione], the “BRD9 Deg Amax %” value is reported as 14.60% and it took 4 nM to reach half-maximal degradation (DC50).

In general, DC50 refers to the concentration giving 50% degradation. Lower therefore signals degradation at low concentration.
